For 8 compounds, half-life results are on record in patent US11643429B2, “Compounds and methods for the treatment of ocular disorders” (Azura Ophthalmics Ltd., priority 2019, dated 2023).

Data set [1] is described as follows: Aqueous Hydrolysis Stability Assay. It is filed as physicochemical. As to conditions: 50 mM HEPES buffer pH 7.5, read-out: T1/2 Aq Stability. How it is done:
Determination of aqueous stability of the test compounds was performed using HIPLC-MS. A test compound 10 mM stock solution was prepared in DMSO. 10 μl of the DMSO stock solution was dissolved in 990 μl of 50 mM HEPES pH 7.5 buffer or 1:1 (v/v) of Acetonitrile:Water to make a 100 μM solution. Final DMSO concentration was 1%. The solution was kept at room temperature and injected without delay into the LCMS (Waters Xevo TQ-S or Micromass Ultima). Additional injections were performed at appropriate time points. Half-life (T1/2) of the parent conjugate was calculated using the peak area of the parent conjugate at each time point in the linear region of the log-linear plot.

Data set [2] in a line: Rabbit Cornea Homogenate Stability Assay (Rabbit Cornea Esterase Assay). It is filed as in vitro ADME. As to conditions: New Zealand White, 37° C., half-life of parent conjugate. The procedure: Determining Rabbit Cornea Homogenate stability of the test compounds was performed using HPLC-MS. The assay was performed at two concentrations of Rabbit Cornea Homogenate (0.15 mg/ml and 0.45 mg/ml total protein) so that any hydrolysis observed could be assigned as esterase dependent or not.
Five rabbit corneas (e.g. New Zealand Whites) of approx. 50 mg each were sliced and scraped with a scalpel and tweezers until reduced to small (1-3 mm), thin pieces. These were transferred into a tared vial and accurately weighed, then diluted with 10 volumes aqueous PBS pH7.4
Sample was cooled intermittently on ice and shear homogenized for 3 minutes, then centrifuged for 3 min at 3000 rpm. The supernatant was pipetted off into a vial, and total protein concentration determined at 280 nm. Sample was stored at −78° C.
10 mM Compound stocks were diluted to 100 μM in a 96 deep-well plate: 10 μl of 10 mM Compound stock was added to 990 μl 50 mM HEPES, pH7.5 buffer.
Compounds were further diluted to 10 μM: 100 μl of 100 μM compound was added to 900 μl 50 mM HEPES, pH7.5 buffer.
Esterase homogenate was diluted to 300 ng/μl and 900 ng/μl
A heater shaker was set to 37° C. Into a suitable 96 well plate (Run Plate), 75 μl of 300 or 900 ng/μl esterase homogenate was pipetted into each of the required wells (2 min, 5 min, 10 min, 20 min and 45 min). The plate was sealed and then warmed at 37° C. for 5 min. Another 96 well PCR plate was put on ice (Kill Plate). To this was added 100 μl of MeCN to each well, labelled 0 min 2 min, 5 min, 10 min, 20 min and 45 min. The plate was covered to minimise evaporation. For the T=0 sample only, to the 100 μl cold MeCN stop solution was added 50 μl of 300 or 900 ng/μl esterase homogenate followed by 50 μl of 10 μM compound solution For the remaining timepoints, 75 μl of 10 μM compound solution was added to the Run Plate starting from T=45 min row and ending with T=2 min row. At the appropriate time point, 100 μl of the assay mixture was added to the matching kill plate well containing 100 μl of cold MeCN. Samples were analysed as soon as practicable by LCMS (Waters Xevo TQ-S or Micromass Ultima). Parent conjugate and parent concentrations were determined against appropriate standard response curves and the half-life (T1/2) of the parent conjugate was calculated using the peak area of the parent conjugate at each time point in the linear region of the log-linear plot.

Like-named read-outs stand apart in the source and are kept apart here.

In the case of `CC[C@H]1OC(=O)[C@H](C)[C@@H](O[C@H]2C[C@@](C)(OC)[C@@H](O)[C@H](C)O2)[C@H](C)[C@@H](O[C@@H]2O[C@H](C)C[C@H](N(C)C)[C@H]2OC(=O)CO)[C@](C)(O)C[C@@H](C)CN(C)[C@H](C)[C@@H](O)[C@]1(C)O` [Compound 1, (2S,3R,4S,6R)-4-(Dimethylamino)-2-(((2R,3S,4R,5R,8R,10R,11R,12S,13S,14R)-2-ethyl-3,4,10-trihydroxy-13-(((2R,4R,5S,6S)-5-hydroxy-4-methoxy-4,6-dimethyltetrahydro-2H-pyran-2-yl)oxy)-3,5,6,8,10,12,14-heptamethyl-15-oxo-1-oxa-6-azacyclopentadecan-11-yl)oxy)-6-methyltetrahydro-2H-pyran-3-yl 2-hydroxyacetate], in data set [1] (ND, estimated, in HEPES pH 7.5), the half-life at 100 µM was less than 3 min.
As for `CC[C@H]1OC(=O)[C@H](C)[C@@H](O[C@H]2C[C@@](C)(OC)[C@@H](O)[C@H](C)O2)[C@H](C)[C@@H](O[C@@H]2O[C@H](C)C[C@H](N(C)C)[C@H]2OC(=O)[C@@H](C)O)[C@](C)(O)C[C@@H](C)CN(C)[C@H](C)[C@@H](O)[C@]1(C)O` [Compound 2, (2S,3R,4S,6R)-4-(Dimethylamino)-2-(((2R,3S,4R,5R,8R,10R,11R,12S,13S,14R)-2-ethyl-3,4,10-trihydroxy-13-(((2R,4R,5S,6S)-5-hydroxy-4-methoxy-4,6-dimethyltetrahydro-2H-pyran-2-yl)oxy)-3,5,6,8,10,12,14-heptamethyl-15-oxo-1-oxa-6-azacyclopentadecan-11-yl)oxy)-6-methyltetrahydro-2H-pyran-3-yl (R)-2-hydroxypropanoate], the half-life at 100 µM in data set [1] (HEPES pH 7.5, room temperature) was less than 3 min.
On to `CC[C@H]1OC(=O)[C@H](C)[C@@H](O[C@H]2C[C@@](C)(OC)[C@@H](O)[C@H](C)O2)[C@H](C)[C@@H](O[C@@H]2O[C@H](C)C[C@H](N(C)C)[C@H]2OC(=O)Cc2ccc(OC)cc2)[C@](C)(O)C[C@@H](C)CN(C)[C@H](C)[C@@H](O)[C@]1(C)O` [Compound 3, (2S,3R,4S,6R)-4-(Dimethylamino)-2-(((2R,3S,4R,5R,8R,10R,11R,12S,13S,14R)-2-ethyl-3,4,10-trihydroxy-13-(((2R,4R,5S,6S)-5-hydroxy-4-methoxy-4,6-dimethyltetrahydro-2H-pyran-2-yl)oxy)-3,5,6,8,10,12,14-heptamethyl-15-oxo-1-oxa-6-azacyclopentadecan-1-yl)oxy)-6-methyltetrahydro-2H-pyran-3-yl 2-(4-methoxyphenyl)acetate], for which the half-life at 100 µM in data set [1] (HEPES pH 7.5, room temperature) worked out at 42 min. Also, the half-life at 5 µM in data set [2] (pH 7.5, Rabbit Cornea Homogenate 0.15 mg/ml total protein, read-out: T1/2 Esterase (min) (0.15 mg/ml Homogenate)) was 35 min; in data set [2] (pH 7.5, Rabbit Cornea Homogenate 0.45 mg/ml total protein, read-out: T1/2 Esterase (min) (0.45 mg/ml Homogenate)), 39 min.
In the case of `CC[C@H]1OC(=O)[C@H](C)[C@@H](O[C@H]2C[C@@](C)(OC)[C@@H](O)[C@H](C)O2)[C@H](C)[C@@H](O[C@@H]2O[C@H](C)C[C@H](N(C)C)[C@H]2OC(=O)COCCOCCOCCOCCO)[C@](C)(O)C[C@@H](C)CN(C)[C@H](C)[C@@H](O)[C@]1(C)O` [Compound 4, (2S,3R,4S,6R)-4-(Dimethylamino)-2-(((2R,3S,4R,5R,8R,10R,11R,12S,13S,14R)-2-ethyl-3,4,10-trihydroxy-13-(((2R,4R,5S,6S)-5-hydroxy-4-methoxy-4,6-dimethyltetrahydro-2H-pyran-2-yl)oxy)-3,5,6,8,10,12,14-heptamethyl-15-oxo-1-oxa-6-azacyclopentadecan-11-yl)oxy)-6-methyltetrahydro-2H-pyran-3-yl 14-hydroxy-3,6,9,12-tetraoxatetradecanoate], the half-life at 100 µM in data set [1] (HEPES pH 7.5, room temperature) worked out at 5.7 min.
For the compound `CC[C@H]1OC(=O)[C@H](C)[C@@H](O[C@H]2C[C@@](C)(OC)[C@@H](O)[C@H](C)O2)[C@H](C)[C@@H](O[C@@H]2O[C@H](C)C[C@H](N(C)C)[C@H]2OC(=O)[C@@H](C)OC(=O)[C@H](CS)NC(C)=O)[C@](C)(O)C[C@@H](C)CN(C)[C@H](C)[C@@H](O)[C@]1(C)O` [Compound 6, (R)-1-(((2S,3R,4S,6R)-4-(Dimethylamino)-2-(((2R,3S,4R,5R,8R,10R,11R,12S,13S,14R)-2-ethyl-3,4,10-trihydroxy-13-(((2R,4R,5S,6S)-5-hydroxy-4-methoxy-4,6-dimethyltetrahydro-2H-pyran-2-yl)oxy)-3,5,6,8,10,12,14-heptamethyl-15-oxo-1-oxa-6-azacyclopentadecan-11-yl)oxy)-6-methyltetrahydro-2H-pyran-3-yl)oxy)-1-oxopropan-2-yl acetyl-L-cysteinate], the half-life at 100 µM in data set [1] (ND, estimated, in HEPES pH 7.5) is less than 3 min.
`CC[C@H]1OC(=O)[C@H](C)[C@@H](O[C@H]2C[C@@](C)(OC)[C@@H](O)[C@H](C)O2)[C@H](C)[C@@H](O[C@@H]2O[C@H](C)C[C@H](N(C)C)[C@H]2OC(=O)[C@H](C)OC(=O)[C@@H](C)O)[C@](C)(O)C[C@@H](C)CN(C)[C@H](C)[C@@H](O)[C@]1(C)O` [Compound 7, (2S,3R,4S,6R)-4-(Dimethylamino)-2-(((2R,3S,4R,5R,8R,10R,11R,12S,13S,14R)-2-ethyl-3,4,10-trihydroxy-13-(((2R,4R,5S,6S)-5-hydroxy-4-methoxy-4,6-dimethyltetrahydro-2H-pyran-2-yl)oxy)-3,5,6,8,10,12,14-heptamethyl-15-oxo-1-oxa-6-azacyclopentadecan-11-yl)oxy)-6-methyltetrahydro-2H-pyran-3-yl(S)-2-(((R)-2-hydroxypropanoyl)oxy)propanoate]: in data set [1] (ND, estimated, in HEPES pH 7.5), the half-life at 100 µM is less than 3 min.
For the compound `CC[C@H]1OC(=O)[C@H](C)[C@@H](O[C@H]2C[C@@](C)(OC)[C@@H](O)[C@H](C)O2)[C@H](C)[C@@H](O[C@@H]2O[C@H](C)C[C@H](N(C)C)[C@H]2OC(=O)[C@@H](C)OC(C)=O)[C@](C)(O)C[C@@H](C)CN(C)[C@H](C)[C@@H](O)[C@]1(C)O` [Compound 8, (2S,3R,4S,6R)-4-(Dimethylamino)-2-(((2R,3S,4R,5R,8R,10R,11R,12S,13S,14R)-2-ethyl-3,4,10-trihydroxy-13-(((2R,4R,5S,6S)-5-hydroxy-4-methoxy-4,6-dimethyltetrahydro-2H-pyran-2-yl)oxy)-3,5,6,8,10,12,14-heptamethyl-15-oxo-1-oxa-6-azacyclopentadecan-11-yl)oxy)-6-methyltetrahydro-2H-pyran-3-yl (R)-2-acetoxypropanoate], the half-life at 100 µM in data set [1] (ND, estimated, in HEPES pH 7.5) was less than 3 min.
`CC[C@H]1OC(=O)[C@H](C)[C@@H](O[C@H]2C[C@@](C)(OC)[C@@H](O)[C@H](C)O2)[C@H](C)[C@@H](O[C@@H]2O[C@H](C)C[C@H](N(C)C)[C@H]2OC(=O)CCCC[C@@H]2CCSS2)[C@](C)(O)C[C@@H](C)CN(C)[C@H](C)[C@@H](O)[C@]1(C)O` [Compound 9, (2S,3R,4S,6R)-4-(Dimethylamino)-2-(((2R,3S,4R,5R,8R,10R,11R,12S,13S,14R)-2-ethyl-3,4,10-trihydroxy-13-(((2R,4R,5S,6S)-5-hydroxy-4-methoxy-4,6-dimethyltetrahydro-2H-pyran-2-yl)oxy)-3,5,6,8,10,12,14-heptamethyl-15-oxo-1-oxa-6-azacyclopentadecan-11-yl)oxy)-6-methyltetrahydro-2H-pyran-3-yl 5-((R)-1,2-dithiolan-3-yl)pentanoate]: in data set [1] (ND, estimated, in HEPES pH 7.5), the half-life at 100 µM was less than 3 min.
